Data: patent US6900193B1, “Structural modification of 19-norprogesterone I: 17-α-substituted-11-β-substituted-4-aryl and 21-substituted 19-norpregnadienedione as new antiprogestational agents” (The United States of America as represented by the …, priority 1996, dated 2005)
“Also recorded” adds a separate entry of the source.

How the values were obtained:
[1] = target: T1, glucocorticoid receptor (estrogen-primed rabbit thymus) (Oryctolagus cuniculus, UniProt P59667); experiment: Relative binding affinity, glucocorticoid receptor; details: for RELATIVE BINDING AFFINITY Glucocorticoid / BINDING AFFINITY Glucocortic: estrogen-primed rabbit thymus, dexamethasone = 100%; for binding affinity for the glucocorticoid receptor, in words: rabbit thymus, versus CDB-2914 (69B) where stated; for BINDING AFFINITY Glucocortic: Table 2
T1 construct: preparation of cytosols for the progesterone and glucocorticoid receptor assays; from tissue; host or cells: thymus of estradiol-primed immature female New Zealand White rabbits (cytosol)
T1 sequence (P59667 1-772): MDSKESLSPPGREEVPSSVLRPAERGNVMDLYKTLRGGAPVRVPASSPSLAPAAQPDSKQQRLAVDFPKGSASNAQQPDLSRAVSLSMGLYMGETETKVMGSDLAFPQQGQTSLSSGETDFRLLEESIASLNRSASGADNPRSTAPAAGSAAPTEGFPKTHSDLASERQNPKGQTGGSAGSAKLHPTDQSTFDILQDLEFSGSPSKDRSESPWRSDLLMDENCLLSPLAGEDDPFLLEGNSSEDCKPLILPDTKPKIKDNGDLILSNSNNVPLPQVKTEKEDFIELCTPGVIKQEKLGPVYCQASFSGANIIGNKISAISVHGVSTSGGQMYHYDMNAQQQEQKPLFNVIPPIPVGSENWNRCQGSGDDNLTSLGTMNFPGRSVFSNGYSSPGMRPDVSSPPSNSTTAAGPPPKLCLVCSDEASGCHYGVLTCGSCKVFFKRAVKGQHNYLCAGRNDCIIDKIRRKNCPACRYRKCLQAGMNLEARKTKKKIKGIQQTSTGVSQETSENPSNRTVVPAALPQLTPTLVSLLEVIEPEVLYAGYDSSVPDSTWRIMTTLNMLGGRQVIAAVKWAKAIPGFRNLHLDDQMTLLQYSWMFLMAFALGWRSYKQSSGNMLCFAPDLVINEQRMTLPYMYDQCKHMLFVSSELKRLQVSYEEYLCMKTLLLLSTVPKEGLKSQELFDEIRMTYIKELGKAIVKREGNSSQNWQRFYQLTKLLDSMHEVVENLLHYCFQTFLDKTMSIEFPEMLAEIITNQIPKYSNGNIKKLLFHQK

[2] = system: progesterone-induced endometrial proliferation; experiment: AntiClauberg test; type: in vivo, rabbit; design: key to ANTIPROGESTATIONAL Anti-Clauberg: relative oral potency vs. reference compound set to 100; details: for ANTIPROGESTATIONAL Anti-Clauberg: relative potency; for ANTIPROGESTATIONAL Anti-Clauberg / BIOLOGICAL ACTIVITY antiClauberg: CDB-2914 = 100 (assigned); for antiClauberg / oral antiprogestational activity, in words: versus the standard 69B; for ANTIPROGESTATIONAL ACTIVITY ANTI-CLAUBERG: estrogen-primed immature rabbits, CDB-2477 = 1.0 (assigned); for BIOLOGICAL ACTIVITY antiClauberg: Table 2
Summary of the method: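 Immature NZW rabbits were estradiol-primed s.c. for 6 days, then given progesterone 0.8 mg/day s.c. plus compound orally or s.c. for 5 days. Uteri were sectioned and H&E-scored for endometrial glandular proliferation (McPhail). Percent inhibition was calculated per dose versus progesterone-only animals.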

SMILES	RELATIVE BINDING AFFINITY Glucocorticoid [1] [%]	ANTIPROGESTATIONAL Anti-Clauberg ([2]; oral)	antiClauberg / oral antiprogestational activity, in words ([2]; oral)	binding affinity for the glucocorticoid receptor, in words [1]	BINDING AFFINITY Glucocortic [1] [%]	BIOLOGICAL ACTIVITY antiClauberg ([2]; oral)	other results
CC(=O)O[C@]1(C(=O)CO)CCC2C3CCC4=CC(=O)CCC4=C3C(c3ccc(N(C)C)cc3)C[C@@]21C (stereo partly drawn) [Compound 41, 17α-acetoxy-21-hydroxy-11β-[4-(N,N-dimethylamino)phenyl]-19-norpregna-4,9-diene-3,20-dione]	71	140	greater activity than the standard	–	–	–	–
CC#C[C@]1(O)CC[C@H]2[C@@H]3CCC4=CC(=O)CCC4=C3[C@@H](c3ccc(N(C)C)cc3)C[C@@]21C [mifepristone]	–	–	–	greater binding affinity	–	–	ANTIPROGESTATIONAL ACTIVITY ANTI-CLAUBERG ([2]; oral): 1.0
COCC(=O)[C@@]1(OC)CC[C@H]2[C@@H]3CCC4=CC(=O)CCC4=C3[C@@H](c3ccc(N(C)C)cc3)C[C@@]21C [Compound 113a, 17α,21-Dimethoxy-11β-[4-(N,N-dimethylamino)phenyl]-19-norpregna-4,9-diene-3,20-dione]	–	–	greater activity than the standard; also recorded: more than twice as active at the standard	reduced binding affinity	62	229	–
CC(=O)OCC(=O)[C@@]1(OC(C)=O)CC[C@H]2[C@@H]3CCC4=CC(=O)CCC4=C3[C@@H](c3ccc(C(C)=O)cc3)C[C@@]21C [Compound 106b, 17α,21-Diacetoxy-11β-(4-acetylphenyl)19-norpregna-4,9-diene-3,20-dione]	–	–	–	–	14	34	–
COCC(=O)C1(OC(C)=O)CCC2C3CCC4=CC(=O)CCC4=C3C(c3ccc(N4CCCCC4)cc3)CC21C (stereo not drawn) [Compound 123a, 17α-Acetoxy-1113-[4-(N-piperidino)phenyl]-21-methoxy-19-norpregna-4,9-diene-3,20-dione]	–	–	–	–	11	45-83	–
CC(=O)O[C@]1(C(C)=O)CC[C@H]2[C@@H]3CCC4=CC(=O)CCC4=C3[C@@H](c3ccc(N4CCCCC4)cc3)C[C@@]21C [Compound 71, 17α-Acetoxy-11β-[4(N-Piperidino)phenyl]-19-norpregna-4,9-diene-3,20-dione]	–	–	greater activity than the standard	low binding affinity	20	253	–
CC(=O)O[C@]1(C(=O)CCl)CCC2C3CCC4=CC(=O)CCC4=C3C(c3ccc(N(C)C)cc3)C[C@@]21C (some centres unmarked) [Compound 14A]	90	68	–	–	–	–	–
CC(=O)O[C@]1(C(=O)CF)CCC2C3CCC4=CC(=O)CCC4=C3C(c3ccc(N(C)C)cc3)C[C@@]21C (stereo partly drawn) [Compound 13, 17α-acetoxy-21-fluoro-11β-[4-(N,N-dimethylamino)phenyl]-19-norpregna-4,9-diene-3,20-dione]	109	80	–	–	–	–	–
CC(=O)O[C@]1(C(C)=O)CC[C@H]2[C@@H]3CCC4=CC(=O)CCC4=C3[C@@H](c3ccc(N(C)C)cc3)C[C@@]21C [Compound 69B, 17α-acetoxy-11β-(4-N,N-dimethylaminophenyl)-19-norpregna-4,9-diene-3,20-dione, reference compound]	114	100	–	–	114	100	potency of the standard relative to mifepristone in the antiClauberg test ([2]; oral administration): 3 times; ANTIPROGESTATIONAL ACTIVITY ANTI-CLAUBERG ([2]; oral): 3.27; potency of 69B relative to mifepristone in the antiClauberg test ([2]; oral, 95% C.I.=1.41-7.58, previous studies): 3.27 ×
CN(C)c1ccc(C2CC3(C)C(CCC34OCC4=O)C3CCC4=CC(=O)CCC4=C23)cc1 (stereo not drawn) [Compound 12, 17-Spirooxetano-3′-oxo-11β-[4-(N,N-dimethylamino)phenyl]-19-norpregna-4,9-dien-3-one]	32	29	–	–	–	–	–
CC(=O)OCC(=O)[C@@]1(OC(C)=O)CCC2C3CCC4=CC(=O)CCC4=C3C(c3ccc(N(C)C)cc3)C[C@@]21C (stereo partly drawn) [Compound 15, 17α,21-diacetoxy-11β-[4-(N,N-dimethylamino)phenyl]-19-norpregna-4,9-diene-3,20-dione]	51	279	greater activity than the standard	substantial reduction in glucocorticoid binding affinity; also recorded: low binding affinity	–	–	antiprogestational potency compared to the lead compound (CDB-2914), oral antiClauberg test ([2]; oral, versus CDB-2914): 2.79 times
